Values joined by “and” are separate entries in the source; they are usually repeats but may differ in a detail not shown here. Equal values may be shown once.
Columns and labels:
p38α = p38α (Homo sapiens, UniProt Q16539); assay: In vitro inhibition of p38 kinase (LANCE Ultra TR-FRET); type: biochemical
p38β = p38β (Homo sapiens, UniProt Q15759); assay: as above; type: biochemical
[1] = Pharmacokinetic properties in rats; type: in vivo, SD rats
Description: Ten male SD rats, weighing 180-220 g (provided by Shanghai Xipuerbikai Laboratory Animal Co., Ltd, Certificate No.: 20130016008116). The rats were fasted for feed for 12-16 hours before the experiment but water was allowed.
Blood samples were collected from the fundus vein of rats before and at 2, 5, 15, 30, 60, 90, 120, 240, 360, 480, 600 and 1440 minutes after administration, respectively.
Blood samples were collected from the fundus vein of rats before and at 5, 15, 30, 60, 90, 120, 240, 360, 480, 600, 1440 minutes after administration respectively.
Blood samples were centrifuged at 8000 rpm for 5 minutes, and supernatant plasma was taken. To 50 μL of plasma samples was added 300 μL of acetonitrile containing internal standard (propranolol, 25 ng/mL) to precipitate the protein. After vortexing for 10 minutes and centrifuging at 6000 g and 4° C. for 10 minutes, the supernatant was taken and placed in a 96-well plate for determination of drug concentration in plasma by UPLC/MS-MS.

TNF-α = assay: Lipopolysaccharide (LPS)-induced inflammation model in mice, TNF-α in serum by ELISA; type: in vivo, C57BL/6J mice
Description: Male SPF-grade C57BL/6J mice, 6-8 weeks old, provided by Shanghai Ling Chang Biotechnology Co., Ltd. Animals were housed in clean-grade plastic cages (light and dark cycle 12/12 hours, temperature 22±2° C., humidity 50±10%, pellet feed, free drinking water).
1. Mice were weighed and administered according to an administration volume of 10 mL/kg, and oral administration by gavage was given for the first time. Each mouse was administrated at an interval of 3 minutes.
2. One hour after the first administration, LPS 5 mpk was administered intraperitoneally at an administration volume of 10 mL/kg.
3. 4 hours after the first administration, a second oral administration by gavage was given according to the administration volume of 10 mL/kg.
4. 6 hours after LPS intraperitoneal injection, mice were sacrificed, serum and cerebral cortex and hippocampus were sampled. After weighing the wet weight and they were put into liquid nitrogen for quick-freezing and storage.

[2] = Drug concentration in mice brain; type: in vivo, ICR mice; settings: FIG. 1
Description: Blood samples were collected from the fundus vein of mice before and at 5, 15, 30, 60, 90, 120, 240, 480 and 1440 minutes of administration, respectively.
2-3 time points were taken for each mouse. The mice were sacrificed at 5, 15, 30, 60 and 1440 minutes after the administration (3 mice per time point), and the brains were taken, rinsed with saline, dried on filter paper and weighed.
Brain tissues were weighed, homogenized in saline (1:4, w/v). 50 μL of homogenized samples were taken, added with 300 μL of acetonitrile containing internal standard (propranolol, 25 ng/mL) to precipitate protein. After vortexing for 10 minutes and centrifuging at 6000 g for 10 minutes, 80 μL of supernatant was taken and placed in a 96-well plate for determination of drug concentration in tissue by UPLC/MS-MS, as shown in Table 2.

p38γ = molecular target: T1, p38γ (Homo sapiens, UniProt P53778); assay: In vitro inhibition of p38 kinase (LANCE Ultra TR-FRET); type: biochemical; settings: read-out: Kinase in vitro IC50(nM) p38γ
T1 sequence (P53778 1-367): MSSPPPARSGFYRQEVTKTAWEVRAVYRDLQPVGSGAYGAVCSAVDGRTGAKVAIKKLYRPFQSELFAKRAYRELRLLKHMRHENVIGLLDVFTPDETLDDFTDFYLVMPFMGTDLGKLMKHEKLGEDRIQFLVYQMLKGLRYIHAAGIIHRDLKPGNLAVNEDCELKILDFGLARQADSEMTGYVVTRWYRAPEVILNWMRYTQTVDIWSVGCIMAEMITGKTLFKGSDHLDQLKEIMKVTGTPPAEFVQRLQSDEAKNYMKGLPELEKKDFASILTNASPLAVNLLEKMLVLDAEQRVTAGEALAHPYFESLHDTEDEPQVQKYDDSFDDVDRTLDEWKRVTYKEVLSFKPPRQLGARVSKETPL

[3] = male, SD, plasma, rat, po 6 mg/kg

p38β, sequence (Q15759 whole entry): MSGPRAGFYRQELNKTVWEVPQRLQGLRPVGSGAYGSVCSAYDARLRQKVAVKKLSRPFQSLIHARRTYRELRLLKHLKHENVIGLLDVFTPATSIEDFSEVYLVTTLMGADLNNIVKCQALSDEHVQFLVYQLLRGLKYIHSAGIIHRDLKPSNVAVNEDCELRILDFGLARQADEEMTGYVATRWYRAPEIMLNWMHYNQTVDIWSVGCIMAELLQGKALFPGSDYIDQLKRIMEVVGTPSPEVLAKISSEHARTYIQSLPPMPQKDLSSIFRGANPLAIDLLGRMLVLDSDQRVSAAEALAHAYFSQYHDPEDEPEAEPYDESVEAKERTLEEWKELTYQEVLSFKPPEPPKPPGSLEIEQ
p38α, sequence (Q16539 whole entry): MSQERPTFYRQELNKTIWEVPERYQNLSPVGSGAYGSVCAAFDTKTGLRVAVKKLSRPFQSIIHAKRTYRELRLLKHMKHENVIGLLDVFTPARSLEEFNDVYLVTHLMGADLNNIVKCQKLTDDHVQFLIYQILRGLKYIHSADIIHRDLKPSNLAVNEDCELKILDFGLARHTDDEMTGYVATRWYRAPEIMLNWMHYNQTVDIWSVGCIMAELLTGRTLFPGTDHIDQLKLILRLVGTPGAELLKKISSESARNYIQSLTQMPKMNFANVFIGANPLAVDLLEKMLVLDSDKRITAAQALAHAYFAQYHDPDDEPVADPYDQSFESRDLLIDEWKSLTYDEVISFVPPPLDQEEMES

SMILES: O=c1ncn2nc(Oc3ccc(F)cc3F)ccc2c1-c1c(Cl)cccc1Cl [Compound I-4, 5-(2,6-dichlorophenyl)-2-(2,4-difluorophenoxy)-6H-pyrimido[1,6-b]pyridazin-6-one]
- inhibitory activity against p38α kinase compared to the positive compound (p38α): superior inhibitory activity
- IC50 (p38α; read-out: Kinase in vitro IC50(nM) p38α): 9.87 nM
- inhibitory activity against p38β kinase compared to the positive compound (p38β): superior inhibitory activity
- IC50 (p38β; read-out: Kinase in vitro IC50(nM) p38β): 47.4 nM
- clearance ([1]; male, SD, plasma, rat, iv 3 mg/kg): 0.5 L/h/kg
- Vd ([1]; male, SD, plasma, rat, iv 3 mg/kg, read-out: Vss (iv)): 2.1 L/kg
- Cmax [1, 3]: 0.994 µg/mL
- MRT [1, 3]: 7.5 h
- Tmax [1, 3]: 4.5 h
- Thalf (iv) ([1]; rat, iv 3 mg/kg): 3.4 h
- BA ([1]; rat, po 6 mg/kg vs iv 3 mg/kg): 68.9%
- AUClast (po) ([1]; rat, po 6 mg/kg, 5-1440 minutes): 8857.1 (h)*(ng/mL)
- clearance rate as fraction of that of the positive compound ([1]; rats): 1/3
- absorption compared with the positive compound VX-745 at the same dose ([1]; rats, 6 mg/kg): significantly higher
- AUC relative to that of the positive compound ([1]; rats, 6 mg/kg, 5-1440 minutes): 5.4 times
- anti-inflammatory effect compared with the VX-745_8 mpk group (TNF-α; 8 mpk): better anti-inflammatory effect
- levels of TNF-α compared with the mouse inflammation model group (G2) (TNF-α; 8 mpk, P<0.01): significantly reduced
- TNF-α conc. (TNF-α; serum, individual animals, 8 mg/kg po bid interval 4 h, 6 hours after LPS 5 mpk ip): 11.9 pg/mL and 127.8 pg/mL and -39.4 pg/mL and 107.7 pg/mL and 92.4 pg/mL and 17.4 pg/mL and 97.1 pg/mL and -37.7 pg/mL and 86.6 pg/mL and 58.6 pg/mL and 89.4 pg/mL and 116.9 pg/mL
- concentration in mouse brain relative to the positive compound ([2]; 1 h time point): more than one time
- drug concentration in mice brain compared with the positive compound ([2]; different time points): significantly higher
- IC50 (p38γ): > 3330 nM

Reference: US20220048915A1 (SHANGHAI PHARMACEUTICALS HOLDING CO., LTD., priority 2018, published 2022)
